Patent US11603568B2, “NOX2 as a biomarker of radiotherapy efficiency in cancer patients” (Institut Gustave-Roussy, priority 2016, dated 2023)

Assays:
Assay type in all cases: cell-based
[1] = tested on: murine RAW264.7 macrophages; assay: Immunoblots of ATMS1981*, ATM, IRF5 and NOX2 expression in murine RAW264.7 macrophages; details: for ATM activation (ATMS1981*) by the agent / IRF5 expression induced by the agent: 24 hours, 10 μM CDDP, 200 ng/ml NCZ, 10 μM Olaparib (FIGS. 3E, 3H-3J)
Experimental: (§1) The human monocyte cell line THP1 cells and the murine macrophage-like RAW264.7 cells were maintained in RMPI-1640-Glutamax medium (Life technology) supplemented with 10% heat-inactivated fetal bovine serum (Hycultec GmbH) and 100 UI/ml penicillin-streptomycin (Life technology). To obtain THP1 macrophages, THP1 monocytes were differentiated with 320 nM of PMA (Invivogen) during 24 h. Then, cells were washed three times to remove PMA and non-adherent cells. For the generation of monocytes-derived macrophages (hMDM), buffy coats from healthy donor blood were obtained from the French blood bank (Etablissement Français du Sang) under the control of convention with the INSERM. In accordance with French law, written informed consent for the use of cells for clinical research was obtained from each donor. Monocytes were obtained from buffy coats and were differentiated into macrophages by using human AB serum in macrophage medium, as previously described. […] All cells were maintained under 5% CO2 humidified atmosphere at 37° C. For hypoxic experiments, cells were incubated in the hypoxic hood (Scitive) under 1% 02, with 5% CO2 humidified atmosphere at 37° C. Dimethyl Sulfoxide (DMSO), Lipopolysaccharides (LPS), Dimethyloxalylglycine (DMOG), NAcetyl-L-cysteine (NAC), Diphenyleneiodonium chloride (DPI), Neocarzinostatin (NCZ), cis-Diammineplatinum(II) dichloride (CDDP) were purchased from Sigma-Aldrich. Recombinant murine IFN-γ (mIFN-γ) was obtained from PeproTech Recombinant Human IFN-γ was from R&D Systems. KU55933 was from Tocris Bioscience. Mn(III)tetrakis (4-benzoic acid) porphyrin Chloride (MnTBAP) was from Calbiochem. Olaparib was from Selleckchem. Phorbol 12-myristate 13-acetate (PMA) was from Invivogen.
(§2) Human MDM (10^6) were activated by treatment with […] recombinant human IFN-γ for 24 h. THP1 monocytes were differentiated into macrophages by 320 nM PMA for 24 h. Then, macrophages were activated with 20 ng/ml recombinant human IFN-γ or 100 ng/ml LPS during 24 h. RAW264.7 macrophages were activated with 20 ng/ml recombinant murine IFN-γ or 100 ng/ml LPS for 24 h.
(§3) Cells were seeded in 6-well plates, 12-well plates or 25 cm^2 flasks and irradiated with gamma-ray irradiator IBL-637 (Cs137, 1 Gy/min, gamma CIS-Bio International, IBA, Saclay, France) or with X-ray irradiator (1Gy/min, X-RAD 320, Precision X-Ray). Cells were harvested at indicated time points (hMDMs and THP1 macrophages at 96 h, RAW264.7 macrophages at 6 h) after irradiation for subsequent experiments.
(§4) Cells were washed twice with cold PBS and lysed with NEHN buffer (0.5% NP40, 20% Glycerol, 300 mM NaCl, 20 mM Herps, pH 7.5, and 1 mM EDTA) complemented with 2.5 mM DTT and the protease and phosphatase inhibitor (Roche) at 4° C. 5-20 μg of proteins were separated by NuPAGE 4-12% or 10% SDS-PAGE gel (Invitrogen) and then were transferred onto a nitrocellulose membrane (0.2 Micron, Bio-Rad). Membranes were blocked with 5% nonfat milk or 5% Bovine Serum Albumine (BSA) in Tris-buffered saline and 0.1% Tween 20 (TBS-T) at room temperature for 1 h and then subsequently probed with primary antibodies (1/5000-1/1000) overnight at 4° C. Then, membranes were incubated with appropriate horseradish peroxidase-conjugated anti-rabbit or anti-mouse IgG (SouthernBiotech) for 1 h at room temperature.

[2] = tested on: PMA-treated human THP1 monocytes; assay: Immunoblots of ATMS1981*, ATM, IRF5 and NOX2 expression in PMA-treated human THP1 monocytes; details: for ATM activation (ATMS1981*) by the agent / IRF5 expression induced by the agent: 24 hours, 20 ng/ml human IFN-γ, 100 ng/ml LPS, 10 μM CDDP (FIGS. 3D, 3F, 3G)
Experimental: as §1, §2, §3, §4

[3] = tested on: murine RAW264.7 macrophages; assay: Confocal immunofluorescence of DNA damage-associated nuclear foci; details: 24 h treatment; 20 ng/ml mIFN-γ, 100 ng/ml LPS or 10 μM CDDP (FIGS. 3A-3C)
Experimental: Cells were grown on coverslips and were treated as indicated. After treatment, cells were rinsed twice, fixed with 10% neutral buffered formalin (Sigma-Aldrich) for 10 min and then permeabilized with 0.3% Triton X-100 in PBS for 15 min. Cells were then washed twice with PBS and were blocked with 10% FBS in PBS for 1 h at room temperature, followed by incubation with primary antibodies (1/100) in 10% FBS in PBS for 1 h30 min at room temperature. Then, samples were incubated with secondary antibodies using Alexa Fluor-488 green or Alexa Fluor-546 red (1/500, Life Technologies) and Hoechst 33342 for nuclei (1/1000, Thermo Fisher Scientific) in 10% FBS in PBS for 30 min at room temperature. Coverslips were mounted with Fluoromount-G (SouthernBiotech) ant then visualized with Leica TCS SPE confocal microscope (Leica Microsystemes, France).

[4] = tested on: murine RAW264.7 macrophages; assay: Detection of ROS production (H2DCFDA staining, flow cytometry); details: for ROS production after IR or mIFN-γ in presence of the inhibitor: 2 Gy single dose or 20 ng/ml mIFN-γ, NAC 1 μg/ml, DPI 200 nM
Experimental: Hydrogen peroxide and anion superoxide production were determined by staining cells with 5 μM of 2,7-dichlorodihydrofluorescein diacetate (H2DCFDA, Sigma) for 40 min at 37° C. Cells were then washed twice with Hanks' balanced salt solution (HBSS, from Thermo Fisher Scientific) and suspended in cold HBSS solution containing 1% FBS for FACS analysis.
Considering that reactive oxygen species (ROS) have been involved in both ATM activation and macrophage differentiation, the role of ROS production during macrophage activation was investigated.

macrophages = assay: Macrophage viability (LDH release); details: data not shown; cells and concentrations as in the activation experiments
Text: The release of LDH in the supernatants of cultured cells was detected using Cytotoxicity Detection KitPLUS (LDH) from Roche according to the manufacturers' instructions.

hMDM = assay: Immunoblots of ATMS1981*, ATM, IRF5 and NOX2 expression in human monocyte-derived macrophages (hMDM)
Experimental: as §1, with “Dimethyl Sulfoxide (DMSO), Lipopolysaccharides (LPS), Dimethyloxalylglycine (DMOG), NAcetyl-L-cysteine (NAC), Diphenyleneiodonium chloride (DPI), Neocarzinostatin (NCZ), cis-Diammineplatinum(II) dichloride (CDDP) were purchased from Sigma-Aldrich. Recombinant murine IFN-γ (mIFN-γ) was obtained from PeproTech Recombinant Human IFN-γ was from R&D Systems. KU55933 was from Tocris Bioscience. Mn(III)tetrakis (4-benzoic acid) porphyrin Chloride (MnTBAP) was from Calbiochem. Olaparib was from Selleckchem. Phorbol 12-myristate 13-acetate (PMA) was from Invivogen.” left out

[5] = 10 μM MnTBAP, 8 Gy single dose, 48 hours (FIG. 4G)
[6] = 1 μg/ml NAC, 2 Gy, 6 hours or 20 ng/ml mIFN-γ, 24 hours (FIGS. 4E, 4F)
[7] = 10 μM Olaparib, 2 Gy, 6 hours (FIG. 2P)

## N.N.[Cl][Pt][Cl] [Cisplatin, cis-Diammineplatinum(II) dichloride]
[1]; 20 ng/ml mIFN-γ
  ATM activation (ATMS1981*) by the agent: activated ATM
  IRF5 expression induced by the agent: increased IRF5 expression
[2]
  ATM activation (ATMS1981*) by the agent: activated ATM
  IRF5 expression induced by the agent: increased IRF5 expression
[3]
  ATMS1981*+ and γ-H2AX+ nuclear foci: activated ATM

## COC(=O)CNC(=O)C(=O)OC [DMOG, Dimethyloxalylglycine]
[1]; 500 μM DMOG, 20 ng/ml mIFN-γ, 24 hours (FIG. 4K)
  ATMS1981* and IRF5 expressions reduced after mIFN-γ stimulation: confirmed
[1]; 500 μM DMOG, 2 Gy single dose, 6 hours (FIG. 4I)
  IR-mediated ATMS1981* and IRF5 expressions: reduced

## c1ccc2c(c1)[I+]c1ccccc1-2 [DPI, Diphenyleneiodonium chloride]
[1]; 200 nM DPI, 2 Gy, 6 hours or 20 ng/ml mIFN-γ, 24 hours (FIGS. 5L, 5M)
  ATMPS1981* and IRF5 up-regulation after IR or mIFN-γ: impaired
[4]
  ROS production after IR or mIFN-γ in presence of the inhibitor: impaired
macrophages
  macrophage viability: without modifying macrophage viability

## O=c1cc(-c2cccc3c2Sc2ccccc2S3)oc(N2CCOCC2)c1 [KU55933]
[1]; 20 μM KU55933, 2 Gy single dose, 6 hours (FIG. 2N)
  γ-H2AX and ATMS1981* phosphorylations and the up-regulation of IRF5 expression after irradiation: impaired
hMDM; 10 μM KU55933, 4 Gy single dose, 96 hours (FIG. 2O)
  γ-H2AX and ATMS1981* phosphorylations and the up-regulation of IRF5 expression after irradiation: impaired
macrophages
  macrophage viability: without altering macrophage viability

## O=C(O)c1ccc(C2=C3C=CC(=N3)C(c3ccc(C(=O)O)cc3)=c3ccc([nH]3)=C(c3ccc(C(=O)O)cc3)c3ccc([n-]3)C(c3ccc(C(=O)O)cc3)c3ccc2[n-]3)cc1.[Cl-].[Mn+3] (stereo not drawn) [MnTBAP, Mn(III)tetrakis (4-benzoic acid) porphyrin Chloride]
[2]; [5]
  activating phosphorylation of ATM (ATMS1981*) after IR: inhibited
  increased expression of IRF5 after IR: reduced
[4]
  ROS production after IR or mIFN-γ in presence of the inhibitor: blunted the ROS production
macrophages
  macrophage viability: without impacting macrophage viability

## CC(=O)N[C@@H](CS)C(=O)O [NAC, NAcetyl-L-cysteine]
[1]; [6]
  activating phosphorylation of ATM (ATMS1981*) after IR or mIFN-γ: inhibited
  increased expression of IRF5 after IR or mIFN-γ: reduced
[4]
  ROS production after IR or mIFN-γ in presence of the inhibitor: blunted the ROS production
macrophages
  macrophage viability: without impacting macrophage viability

## O=C(c1cc(Cc2n[nH]c(=O)c3ccccc23)ccc1F)N1CCN(C(=O)C2CC2)CC1 [Olaparib]
[1]; [7]
  ATM activation after irradiation: enhancement of ATM activation
  IRF5 expression after irradiation (inflammatory macrophage activation elicited by IR): increased expression of IRF5
[1]; 20 ng/ml mIFN-γ
  ATM activation (ATMS1981*) by the agent: activated ATM
  IRF5 expression induced by the agent: increased IRF5 expression

## Neocarzinostatin
[1]; 20 ng/ml mIFN-γ
  ATM activation (ATMS1981*) by the agent: activated ATM
  IRF5 expression induced by the agent: increased IRF5 expression

B1: IFN-γ: Recombinant Human IFN-γ from R&D Systems, classical macrophage activator (protein, UniProt P01579 24-161, looked up)
Interferon gamma: QDPYVKEAENLKKYFNAGHSDVADNGTLFLGILKNWKEESDRKIMQSQIVSFYFKLFKNFKDDQSIQKSVETIKEDMNVKFFNSNKKKRDDFEKLTNYSVTDLNVQRKAIHELIQVMAELSPAAKTGKRKRSQMLFRG
hMDM; 4 μg/ml hIFN-γ, 24 hours (FIG. 5B)
  NOX2 up-regulated (immunoblot): confirmed
[2]; 20 ng/ml hIFN-γ, 24 hours (FIG. 5C)
  NOX2 up-regulated (immunoblot): confirmed
[2]
  ATM activation (ATMS1981*) by the agent: activation of ATM
  IRF5 expression induced by the agent: increased expression of IRF5

B2: mIFN-γ: Recombinant murine IFN-γ from PeproTech, classical macrophage activator (protein, UniProt P01580 23-155, looked up)
Interferon gamma: HGTVIESLESLNNYFNSSGIDVEEKSLFLDIWRNWQKDGDMKILQSQIISFYLRLFEVLKDNQAISNNISVIESHLITTFFSNSKAKKDAFMSIAKFEVNNPQVQRQAFNELIRVVHQLLPESSLRKRKRSRC
[1]; 20 ng/ml mIFN-γ, 24 hours (FIG. 5E)
  NOX2 up-regulated (immunoblot): confirmed
[1]; 20 ng/ml mIFN-γ
  ATM activation (ATMS1981*) by the agent: activation of ATM
  IRF5 expression induced by the agent: increased expression of IRF5
[4]; 20 ng/ml mIFN-γ (FIGS. 4C, 4D)
  ROS production induced by the treatment: induced ROS production
[3]
  ATMS1981*+ and γ-H2AX+ nuclear foci: accumulation of ATMS1981*+ and γ-H2AX+ foci
